The results in this text go back to ChEMBL document CHEMBL1201862, “PubChem BioAssay data set” (2004).

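Grown in 96-well plates, cells were treated for 48 hours with each compound at five concentrations. Insufficient inhibition: endpoint recorded as highest concentration tested. At the GI50, growth is halved.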 Calls of active or inactive are those of the source. Rule as the data show it: active = GI50 up to about 1.1 µM and inactive = higher.

Among the test systems are ACHN; HL-60; IGROV-1; LOX IMVI; NCI-H226; OVCAR-5; RPMI-8226; RXF 393; SF-268; SK-MEL-28; SK-MEL-2; SNB-19; SW-620; U-251; UACC-62; UO-31.
Common to all, as to assay: NCI-60 cell line screen, 48 h

As to `O=c1[nH]c2ccccc2cc1C(Cl)=C(Cl)Cl`, the GI50 was > 100 µM (inactive) in the experiment on ACHN; 53.7 µM (inactive) in the experiment with HL-60; > 100 µM (inactive) in the experiment with IGROV-1; > 100 µM (inactive) in the experiment on LOX IMVI; > 100 µM (inactive) in the experiment with NCI-H226; > 100 µM (inactive) in the experiment on OVCAR-5. The GI50 in the experiment with RPMI-8226, with RXF 393, with SF-268, in the experiment on SK-MEL-28, with SK-MEL-2 and with SNB-19 was > 100 µM (inactive) throughout. Besides, the GI50 in the experiment with SW-620, in the experiment with U-251, in the experiment on UACC-62 and in the experiment with UO-31 was > 100 µM (inactive) each time.
Regarding `CCOC(=O)Cc1nc(/C(C#N)=C/c2ccco2)[nH]c(=O)c1C#N`, the GI50 in the experiment with ACHN is > 100 µM (inactive); in the experiment with HL-60 it was 95.3 µM (inactive); with IGROV-1, > 100 µM (inactive); in the experiment on LOX IMVI it was > 100 µM (inactive); in the experiment on NCI-H226 it was > 100 µM (inactive); in the experiment with OVCAR-5 it was > 100 µM (inactive). Besides, the GI50 in the experiment on RPMI-8226, in the experiment on RXF 393, with SK-MEL-2, in the experiment with SNB-19, in the experiment on SW-620 and in the experiment with U-251 was > 100 µM (inactive) throughout. Moreover, the GI50 was 35.4 µM (inactive) in the experiment on UACC-62 and > 100 µM (inactive) in the experiment on UO-31.
Turning to `CCOC(=O)C1=C(Nc2ccc(Cl)c(Cl)c2)OC/C1=N\NS(=O)(=O)c1ccc(C)cc1`, the GI50 was 27.9 µM (inactive) with HL-60; 68.9 µM (inactive) in the experiment on IGROV-1; 9.48 µM (inactive) in the experiment with LOX IMVI; 27.3 µM (inactive) in the experiment on NCI-H226; > 100 µM (inactive) in the experiment on OVCAR-5; 21.6 µM (inactive) in the experiment with RPMI-8226. Moreover, the GI50 was 67.9 µM (inactive) in the experiment with RXF 393; 45.8 µM (inactive) with SF-268; 64.7 µM (inactive) in the experiment on SK-MEL-28; 29.6 µM (inactive) with SK-MEL-2; 59 µM (inactive) with SNB-19; > 100 µM (inactive) in the experiment with SW-620. Moreover, the GI50 with U-251 was 66.5 µM (inactive); in the experiment with UACC-62, 39.4 µM (inactive); with UO-31 it was 25.1 µM (inactive).
Take `N/C(=N\O)N/N=C/c1ccc(O)c(O)c1`: the GI50 in the experiment on ACHN, in the experiment with HL-60, in the experiment on IGROV-1, in the experiment with LOX IMVI, in the experiment on NCI-H226 and with OVCAR-5 was > 100 µM (inactive) in each case. Further, the GI50 in the experiment on RPMI-8226, in the experiment with RXF 393, in the experiment with SF-268, in the experiment on SK-MEL-28, in the experiment with SK-MEL-2 and in the experiment with SNB-19 was > 100 µM (inactive) each time. The GI50 with SW-620, in the experiment with U-251, in the experiment on UACC-62 and in the experiment on UO-31 was > 100 µM (inactive) each time.
In the case of `O=C1c2cccc([N+](=O)[O-])c2C(=O)c2nccnc21`, the GI50 in the experiment on ACHN is 3.19 µM (inactive); in the experiment on HL-60, 2.15 µM (inactive); in the experiment with LOX IMVI, 1.04 µM (active); with NCI-H226, 1.94 µM (inactive); with OVCAR-5 it was 3.81 µM (inactive); with RPMI-8226 it was 3.05 µM (inactive). The GI50 with RXF 393 was 1.95 µM (inactive); with SK-MEL-28 it was 1.63 µM (inactive); in the experiment with SK-MEL-2, 1.45 µM (inactive); with SNB-19, 1.69 µM (inactive); in the experiment with SW-620 it was 1.73 µM (inactive); with U-251 it was 1.4 µM (inactive). The GI50 with UACC-62 is 1.32 µM (inactive); in the experiment on UO-31, 1.27 µM (inactive).
With `COC(=O)C(C(=O)C(=O)Nc1ccccc1C(C)=O)c1nc2ccc(Cl)cc2nc1O` (configuration not stated), the GI50 was > 100 µM (inactive) with ACHN; > 100 µM (inactive) in the experiment with HL-60; > 100 µM (inactive) in the experiment on IGROV-1; > 100 µM (inactive) in the experiment on LOX IMVI; 78.3 µM (inactive) with NCI-H226; > 100 µM (inactive) with OVCAR-5. Also, the GI50 with RPMI-8226 was > 100 µM (inactive); in the experiment with RXF 393 it was 89.7 µM (inactive); in the experiment on SF-268 it was > 100 µM (inactive); with SK-MEL-28, > 100 µM (inactive); with SK-MEL-2 it was > 100 µM (inactive); in the experiment on SNB-19, > 100 µM (inactive). For the same compound, the GI50 with SW-620 was > 100 µM (inactive); in the experiment on U-251, > 100 µM (inactive); in the experiment on UACC-62, > 100 µM (inactive); in the experiment on UO-31 it was 77.8 µM (inactive).
In the case of `CC(CCC[C@H](C)CO)[C@H]1[C@@H](O)C(O)C2[C@@H]3C[C@@H](O)C4(O)C[C@@H](O)CC[C@]4(C)C3CC[C@@]21C` (some centres not stated), the GI50 is > 100 µM (inactive) with ACHN; 44.9 µM (inactive) in the experiment on HL-60; > 100 µM (inactive) in the experiment with IGROV-1; > 100 µM (inactive) in the experiment with LOX IMVI; > 100 µM (inactive) in the experiment with NCI-H226; > 100 µM (inactive) in the experiment on RPMI-8226. In addition, the GI50 with RXF 393, in the experiment on SF-268, in the experiment on SK-MEL-28, in the experiment on SK-MEL-2, in the experiment with SNB-19 and in the experiment on SW-620 was > 100 µM (inactive) throughout. Also, the GI50 with U-251, in the experiment with UACC-62 and with UO-31 was > 100 µM (inactive) each time.
Take `O=C(O)c1ccc(C2C(=O)N[C@@H]3CCC[C@H]23)cc1` (some centres not stated): the GI50 with HL-60, in the experiment with IGROV-1, in the experiment on LOX IMVI, in the experiment with NCI-H226, in the experiment with OVCAR-5 and in the experiment with RPMI-8226 was > 100 µM (inactive) throughout. The GI50 with RXF 393, with SF-268, in the experiment on SK-MEL-28, with SK-MEL-2, in the experiment on SNB-19 and with SW-620 was > 100 µM (inactive) in each case. Further, the GI50 in the experiment with U-251, in the experiment with UACC-62 and in the experiment on UO-31 was > 100 µM (inactive) each time.
On to `CCOc1ccccc1/N=N/c1c(-c2ccccc2)nn(C(=O)CC(=O)Nc2cccc(Cl)c2)c1-c1ccccc1`, for which the GI50 in the experiment with ACHN was 18.7 µM (inactive); with HL-60, 58.6 µM (inactive); in the experiment with IGROV-1 it was 68.9 µM (inactive); in the experiment on LOX IMVI it was 35.7 µM (inactive); with NCI-H226, 64.1 µM (inactive); in the experiment with OVCAR-5, 50.8 µM (inactive). Besides, the GI50 was 46.9 µM (inactive) in the experiment on RPMI-8226; 95.7 µM (inactive) in the experiment on RXF 393; 29.2 µM (inactive) in the experiment on SF-268; 31.9 µM (inactive) with SK-MEL-28; > 100 µM (inactive) with SK-MEL-2; 68.9 µM (inactive) in the experiment on SNB-19. Further, the GI50 in the experiment on SW-620 is > 100 µM (inactive); in the experiment on U-251, 39.5 µM (inactive); with UACC-62 it was 39.6 µM (inactive); with UO-31, 19.2 µM (inactive).
